Measurements taken from ChEMBL document CHEMBL6109155, “Discovery of Phenylacylpiperidine as Novel sEH Inhibitors through Scaffold Hopping of Natural Stilbene” (J Med Chem, 2025).
The source made the active and inactive calls. The rule behind the calls is not given here.

How the values were obtained:
Mus musculus [1] = experiment: Anti-inflammatory activity in BALB/c mouse model of carrageenan-induced paw edema assessed as inhibition of paw swelling at 20 mg/kg, po measured for 6 hrs relative to control; assay type: functional
Mus musculus [2] = experiment: Anti-inflammatory activity in BALB/c mouse model of carrageenan-induced paw edema assessed as increase in ratio of 8,9-EET to DHET plasma levels at 10 mg/kg, po measured after 6 hrs relative to control; assay type: functional
Mus musculus [3] = experiment: Anti-inflammatory activity in BALB/c mouse model of carrageenan-induced paw edema assessed as increase in ratio of 11,12-EET to DHET plasma levels at 10 mg/kg, po measured after 6 hrs relative to control; assay type: functional
Mus musculus [4] = experiment: Anti-inflammatory activity in BALB/c mouse model of carrageenan-induced paw edema assessed as increase in plasma 11,12-EET levels at 10 mg/kg, po measured after 6 hrs relative to control; assay type: functional
Mus musculus [5] = experiment: Anti-inflammatory activity in BALB/c mouse model of carrageenan-induced paw edema assessed as increase in plasma 14,15-EET levels at 10 mg/kg, po measured after 6 hrs relative to control; assay type: functional
Mus musculus [6] = experiment: Anti-inflammatory activity in BALB/c mouse model of carrageenan-induced paw edema assessed as decrease in plasma 8,9-DHET levels at 10 mg/kg, po measured after 6 hrs relative to control; assay type: functional; parameters: scale not given: the % may be the effect or the level left
Rattus norvegicus [7] = experiment: Anti-inflammatory activity in Sprague-Dawley rat model of CFA-induced rheumatoid arthritis assessed as decrease in swelling degree of left paw at 10 mg/kg, po administered daily measured after 16 to 19 days; assay type: functional, organism-based; conditions: time 16-19 day
Rattus norvegicus [8] = experiment: Anti-inflammatory activity in Sprague-Dawley rat model of CFA-induced rheumatoid arthritis assessed as decrease in paw redness at 10 mg/kg, po administered daily measured after 7 days; assay type: functional, organism-based; conditions: time 7.0 day
Rattus norvegicus [9] = experiment: Anti-inflammatory activity in Sprague-Dawley rat model of CFA-induced rheumatoid arthritis assessed as decrease in arthritis index at 10 mg/kg, po administered daily measured for 7 to 19 days; assay type: functional, organism-based; conditions: time 7-19 day
Rattus norvegicus [10] = experiment: Anti-inflammatory activity in Sprague-Dawley rat model of CFA-induced rheumatoid arthritis assessed as improvement in food intake at 10 mg/kg, po administered daily measured for 19 days; assay type: functional, organism-based; conditions: time 19.0 day
Rattus norvegicus [11] = experiment: Anti-inflammatory activity in Sprague-Dawley rat model of CFA-induced rheumatoid arthritis assessed as improvement in body weight at 10 mg/kg, po administered daily measured for 19 days; assay type: functional, organism-based; conditions: time 19.0 day
Rattus norvegicus [12] = experiment: Anti-inflammatory activity in Sprague-Dawley rat model of CFA-induced rheumatoid arthritis assessed as improvement in chondrocytes morphology at 10 mg/kg, po administered daily measured after 19 days by H and E staining based analysis; assay type: functional, organism-based; conditions: time 19.0 day
Rattus norvegicus [13] = experiment: Anti-inflammatory activity in Sprague-Dawley rat model of CFA-induced rheumatoid arthritis assessed as reduction in hyperplasia in synovial tissue at 10 mg/kg, po administered daily measured after 19 days by H and E staining based analysis; assay type: functional, organism-based; conditions: time 19.0 day
Rattus norvegicus [14] = experiment: Anti-inflammatory activity in Sprague-Dawley rat model of CFA-induced rheumatoid arthritis assessed as decrease in plasma IL-6 level at 10 mg/kg, po administered daily measured after 19 days relative to control; assay type: functional; parameters: scale not given: the % may be the effect or the level left; conditions: time 19 day
Rattus norvegicus [15] = experiment: Anti-inflammatory activity in Sprague-Dawley rat model of CFA-induced rheumatoid arthritis assessed as TV value at 10 mg/kg, po administered daily measured after 19 days by micro-CT analysis (reference value: 92.617 mm3); assay type: functional; conditions: time 19 day
Rattus norvegicus [16] = experiment: Anti-inflammatory activity in Sprague-Dawley rat model of CFA-induced rheumatoid arthritis assessed as BV value at 10 mg/kg, po administered daily measured after 19 days by micro-CT analysis (reference value: 37.091 mm3); assay type: functional; conditions: time 19 day
Rattus norvegicus [17] = experiment: Anti-inflammatory activity in Sprague-Dawley rat model of CFA-induced rheumatoid arthritis assessed as increase in ratio of plasma 8,9-EET to DHET levels at 10 mg/kg, po administered daily measured after 19 days relative to control; assay type: functional; conditions: time 19 day
[18] = In vivo inhibition of liver sEH enzyme activity in Sprague-Dawley rat model of CFA-induced rheumatoid arthritis at 10 mg/kg, po administered daily measured after 19 days relative to control; assay type: functional; conditions: 456 h, time 19 day
Mus musculus [19] = experiment: Anti-inflammatory activity in CD-1 mouse model of cerulein-induced acute pancreatitis assessed as decrease in plasma TNF-alpha level at 10 mg/kg, ip drug administered at 30 mins and 2.5 hrs post-first cerulein injection and measured after 6 hrs post-first cerulein injection; assay type: functional, organism-based; conditions: time 3.5-5.5 hrs
Mus musculus [20] = experiment: (§1) Anti-inflammatory activity in CD-1 mouse model of cerulein-induced acute pancreatitis assessed as increase in ratio of plasma 11,12-EET/DHET level at 10 mg/kg, ip drug administered at 30 mins and 2.5 hrs post-first cerulein injection and measured after 6 hrs post-first cerulein injection (reference value: 69.8 to 77.3 %); assay type: functional; conditions: time 3.5-5.5 hrs
Mus musculus [21] = experiment: as §1, with “14,15-EET/DHET” for “11,12-EET/DHET”; assay type: functional; conditions: time 3.5-5.5 hrs
hERG = hERG (Homo sapiens, UniProt Q12809); experiment: Inhibition of hERG at 10 uM by whole-cell patch-clamp method relative to control; assay type: toxicity
[22] = AUC (0 to 24 hrs) in plasma of C57BL/6J mouse at 20 mg/kg, po measured for 24 hrs; assay type: ADME, organism-based
[23] = Cmax in liver of C57BL/6J mouse at 20 mg/kg, po measured for 24 hrs; assay type: ADME, organism-based
[24] = AUC (0 to 24 hrs) in liver of C57BL/6J mouse at 20 mg/kg, po measured for 24 hrs; assay type: ADME, organism-based
[25] = Cmax in brain of C57BL/6J mouse at 20 mg/kg, po measured for 24 hrs; assay type: ADME, organism-based
[26] = Cmax in kidney of C57BL/6J mouse at 20 mg/kg, po measured for 24 hrs; assay type: ADME, organism-based
[27] = Half life in Sprague-Dawley rat at 20 mg/kg, po measured for 24 hrs; assay type: ADME, organism-based; conditions: in vivo
[28] = Tmax in Sprague-Dawley rat at 20 mg/kg, po measured for 24 hrs; assay type: ADME, organism-based; conditions: in vivo
[29] = Cmax in Sprague-Dawley rat at 20 mg/kg, po measured for 24 hrs; assay type: ADME, organism-based; conditions: in vivo
[30] = AUC (0 to 24 hrs) in Sprague-Dawley rat at 20 mg/kg, po measured for 24 hrs; assay type: ADME, organism-based; conditions: in vivo
[31] = Volume of distribution in Sprague-Dawley rat at 20 mg/kg, po measured for 24 hrs; assay type: ADME, organism-based; conditions: in vivo
[32] = Half life in Sprague-Dawley rat at 5 mg/kg, iv measured for 24 hrs; assay type: ADME, organism-based; conditions: in vivo
[33] = Cmax in Sprague-Dawley rat at 5 mg/kg, iv measured for 24 hrs; assay type: ADME, organism-based; conditions: in vivo
[34] = Clearance in Sprague-Dawley rat at 5 mg/kg, iv measured for 24 hrs; assay type: ADME, organism-based; conditions: in vivo

Sequence of hERG (Q12809 whole entry): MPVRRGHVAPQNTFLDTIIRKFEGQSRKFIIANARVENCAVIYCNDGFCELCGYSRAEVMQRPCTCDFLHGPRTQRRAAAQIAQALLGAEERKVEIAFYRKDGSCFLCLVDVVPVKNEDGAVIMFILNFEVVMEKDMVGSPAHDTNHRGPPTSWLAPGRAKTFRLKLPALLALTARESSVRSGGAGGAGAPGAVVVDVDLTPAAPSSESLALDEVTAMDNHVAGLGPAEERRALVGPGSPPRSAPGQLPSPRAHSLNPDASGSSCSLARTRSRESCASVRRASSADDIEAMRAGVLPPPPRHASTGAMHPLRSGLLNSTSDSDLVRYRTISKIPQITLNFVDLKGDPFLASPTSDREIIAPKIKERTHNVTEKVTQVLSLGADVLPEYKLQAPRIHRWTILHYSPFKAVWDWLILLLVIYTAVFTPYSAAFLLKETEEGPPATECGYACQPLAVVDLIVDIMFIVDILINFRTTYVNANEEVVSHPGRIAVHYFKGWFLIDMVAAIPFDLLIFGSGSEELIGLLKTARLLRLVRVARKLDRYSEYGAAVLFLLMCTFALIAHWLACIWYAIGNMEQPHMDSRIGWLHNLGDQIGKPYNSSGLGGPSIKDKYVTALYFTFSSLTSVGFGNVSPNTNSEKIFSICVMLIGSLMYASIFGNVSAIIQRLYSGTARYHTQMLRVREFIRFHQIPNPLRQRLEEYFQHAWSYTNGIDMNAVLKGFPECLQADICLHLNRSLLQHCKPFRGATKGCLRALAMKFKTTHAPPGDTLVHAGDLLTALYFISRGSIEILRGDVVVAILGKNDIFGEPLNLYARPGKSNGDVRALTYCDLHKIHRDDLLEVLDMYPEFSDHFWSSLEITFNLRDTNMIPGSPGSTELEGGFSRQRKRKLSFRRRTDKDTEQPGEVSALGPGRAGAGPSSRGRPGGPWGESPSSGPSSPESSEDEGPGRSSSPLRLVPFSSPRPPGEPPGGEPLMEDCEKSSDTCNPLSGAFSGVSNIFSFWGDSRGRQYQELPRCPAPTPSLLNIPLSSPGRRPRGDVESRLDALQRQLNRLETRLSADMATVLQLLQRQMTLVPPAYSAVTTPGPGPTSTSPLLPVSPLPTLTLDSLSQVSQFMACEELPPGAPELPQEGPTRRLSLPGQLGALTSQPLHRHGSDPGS

AUC(0-t) at 24 h [22]: 532 ng·h/mL
Cmax [23]: 3230 ng/g
AUC(0-t) at 24 h [24]: 27100 ng·h/mL
Cmax [25]: 27.9 ng/g
Cmax [26]: 4540 ng/g
half-life [27]: 113 min
Tmax [28]: 30 min
Cmax [29]: 359 ng/mL
AUC(0-t) at 24 h [30]: 725 ng·h/mL
Vd [31]: 74.6 L/kg
half-life [32]: 25.2 min
Cmax [33]: 3120 ng/mL
clearance [34]: 38.8 mL/min/kg
Compound: COc1cc(CC(=O)N2CCC(NC(=O)NCc3ccc(OC(F)(F)F)cc3)CC2)cc(OC)c1
inhibition in vivo at 20 mg/kg (Mus musculus [1]): 38.1%
Activity (Mus musculus [2]): 355%
Activity (Mus musculus [3]): 362%
Activity (Mus musculus [4]): 85.4%
Activity (Mus musculus [5]): 128%
Activity (Mus musculus [6]): 70.3%
Activity (Rattus norvegicus [7]): Active
Activity (Rattus norvegicus [8]): Active
Activity (Rattus norvegicus [9]): Active
Activity (Rattus norvegicus [10]): Active
Activity (Rattus norvegicus [11]): Active
Activity (Rattus norvegicus [12]): Active
Activity (Rattus norvegicus [13]): Active; Mild Hyperplasia Was Observed
Activity (Rattus norvegicus [14]): 60%
Activity (Rattus norvegicus [15]): 57.762 mm3
Activity (Rattus norvegicus [16]): 36.234 mm3
Activity (Rattus norvegicus [17]): 203%
inhibition in vivo at 10 mg/kg [18]: 24.7%
Activity (Mus musculus [19]): Active
Activity (Mus musculus [20]): 552%
Activity (Mus musculus [21]): 905%
inhibition at 10 µM (hERG): 12.5%
